Reference: patent EP2929883A1, “Pyrazole derivatives as dihydroorotate dehydrogenase (DHODH) inhibitors” (INSTITUT PASTEUR, priority 2014, dated 2015)
In brackets after ≈: the same amount, converted by molar mass.

Test system: measles virus
Assay: microbe, parasite or virus in culture
Conditions: Measles morbillivirus, 24 h

SMILES	MIC50 [µM]
CCOc1nn(-c2ncc(CC)cn2)cc1I [example 107, 2-(3-ethoxy-4-iodo-1H-pyrazol-1-yl)-5-ethylpyrimidine]	> 5
CCc1cnc(-n2nc(OC(C)C)c(Cc3ccccc3)c2C)nc1 [example 139, 2-(4-benzyl-3-isopropoxy-5-methyl-1H-pyrazol-1-yl)-5-ethylpyrimidine]	0.0005 to 0.05 (≈ 0.000168 to 0.0168 µg/mL)
CCOc1nn(-c2ccc(C(C)=O)cn2)c(C)c1Cc1ccccc1 [example 88, 1-(6-(4-benzyl-3-ethoxy-5-methyl-1H-pyrazol-1-yl)pyridin-3-yl)ethanone]	> 5
CCOc1nn(-c2ccc(C3CC3)cn2)c(C)c1Oc1cccc(Cl)c1Cl [example 49, 5-cyclopropyl-2-(4-(2,3-dichlorophenoxy)-3-ethoxy-5-methyl-1H-pyrazol-1-yl)pyridine]	0.0005 to 0.05 (≈ 0.000202 to 0.0202 µg/mL)
CCOc1nn(-c2ccccn2)c(C)c1Cc1ccccc1 [example 30, 2-(4-benzyl-3-ethoxy-5-methyl-1H-pyrazol-1-yl)pyridine]	> 5
COc1nn(-c2ccc(C)cn2)c(C)c1Cc1ccccc1 [example 137, 2-(4-benzyl-3-methoxy-5-methyl-1H-pyrazol-1-yl)-5-methylpyridine]	0.5 to 5 (≈ 0.147 to 1.47 µg/mL)
CC(C)Oc1nn(-c2ccc(C3CC3)cn2)cc1S(=O)(=O)c1ccccc1 [example 180, 5-cyclopropyl-2-(3-isopropoxy-4-(phenylsulfonyl)-1H-pyrazol-1-yl)pyridine]	0.05 to 0.5 (≈ 0.0192 to 0.192 µg/mL)
CCc1cnc(-n2nc(OC(C)C)c(Cc3ccccc3OC)c2C)nc1 [example 101, 5-ethyl-2-(3-isopropoxy-4-(2-methoxybenzyl)-5-methyl-1H-pyrazol-1-yl)pyrimidine]	0.0005 to 0.05 (≈ 0.000183 to 0.0183 µg/mL)
CCOc1nn(-c2ccc(C3CC3)cn2)c(C)c1Oc1ccccc1F [example 68, 5-cyclopropyl-2-(3-ethoxy-4-(2-fluorophenoxy)-5-methyl-1H-pyrazol-1-yl)pyridine]	0.0005 to 0.05 (≈ 0.000177 to 0.0177 µg/mL)
CCc1cnc(-n2[nH]c(=O)c(Cc3ccccc3)c2C)nc1 [example 135, 4-benzyl-1-(5-ethylpyrimidin-2-yl)-5-methyl-1H-pyrazol-3(2H)-one]	0.5 to 5 (≈ 0.147 to 1.47 µg/mL)
CCOc1nn(-c2ncc(C3CC3)cc2F)c(C)c1Cc1ccccc1 [example 35, 2-(4-benzyl-3-ethoxy-5-methyl-1H-pyrazol-1-yl)-5-cyclopropyl-3-fluoropyridine]	0.05 to 0.5 (≈ 0.0176 to 0.176 µg/mL)
CC(C)Oc1nn(-c2ccc(C3CC3)cn2)cc1C(=O)c1ccccc1 [example 109, (1-(5-cyclopropylpyridin-2-yl)-3-isopropoxy-1H-pyrazol-4-yl)(phenyl)methanone]	0.5 to 5 (≈ 0.174 to 1.74 µg/mL)
COc1ccc(-n2nc(OC(C)C)c(Oc3c(F)cccc3F)c2C)nn1 [example 174, 3-(4-(2,6-difluorophenoxy)-3-isopropoxy-5-methyl-1H-pyrazol-1-yl)-6-methoxypyridazine]	0.05 to 0.5 (≈ 0.0188 to 0.188 µg/mL)
CCOc1nn(-c2ccccn2)c(C)c1-c1cccc(C(F)(F)F)c1 [example 158, 2-(3-ethoxy-5-methyl-4-(3-(trifluoromethyl)phenyl)-1H-pyrazol-1-yl)pyridine]	> 5
CCCc1cnc(-n2nc(OC(C)C)c(Oc3c(F)cccc3F)c2C)nc1 [example 6, 2-(4-(2,6-difluorophenoxy)-3-isopropoxy-5-methyl-1H-pyrazol-1-yl)-5-propylpyrimidine]	0.0005 to 0.05 (≈ 0.000194 to 0.0194 µg/mL)
COc1nn(-c2ncc(C3CC3)cn2)c(C)c1Cc1ccccc1 [example 138, 2-(4-benzyl-3-methoxy-5-methyl-1H-pyrazol-1-yl)-5-cyclopropylpyrimidine]	0.05 to 0.5 (≈ 0.016 to 0.16 µg/mL)
Cc1cc(Br)cnc1-n1nc(OC(C)C)c(Oc2c(F)cccc2F)c1C [example 85, 5-bromo-2-(4-(2,6-difluorophenoxy)-3-isopropoxy-5-methyl-1H-pyrazol-1-yl)-3-methylpyridine]	0.5 to 5 (≈ 0.219 to 2.19 µg/mL)
CCOc1nn(-c2ccc(C3CC3)cn2)c(C)c1Oc1ccccc1Cl [example 63, 2-(4-(2-chlorophenoxy)-3-ethoxy-5-methyl-1H-pyrazol-1-yl)-5-cyclopropylpyridine]	0.0005 to 0.05 (≈ 0.000185 to 0.0185 µg/mL)
CCOc1nn(-c2ccc(C3CC3)cn2)c(C)c1Oc1ccc(C(F)(F)F)cc1 [example 94, 5-cyclopropyl-2-(3-ethoxy-5-methyl-4-(4-(trifluoromethyl)phenoxy)-1H-pyrazol-1-yl)pyridine]	0.5 to 5 (≈ 0.202 to 2.02 µg/mL)
CCOc1c(Cc2ccccc2)c(C)nn1-c1ncc(CC)cn1 [example 26, 2-(4-benzyl-5-ethoxy-3-methyl-1H-pyrazol-1-yl)-5-ethylpyrimidine]	0.5 to 5 (≈ 0.161 to 1.61 µg/mL)
CCOc1nn(-c2ncc(Br)cn2)c(C)c1Cc1ccccc1 [example 42, 2-(4-benzyl-3-ethoxy-5-methyl-1H-pyrazol-1-yl)-5-bromopyrimidine]	0.05 to 0.5 (≈ 0.0187 to 0.187 µg/mL)
Cc1ccc(-n2nc(OC(C)C)c(Oc3c(F)cccc3F)c2C)cn1 [example 128, 5-(4-(2,6-difluorophenoxy)-3-isopropoxy-5-methyl-1H-pyrazol-1-yl)-2-methylpyridine]	0.0005 to 0.05 (≈ 0.00018 to 0.018 µg/mL)
CCOc1nn(-c2ccc(C3CC3)cn2)c(C)c1Oc1ccccc1Br [example 55, 2-(4-(2-bromophenoxy)-3-ethoxy-5-methyl-1H-pyrazol-1-yl)-5-cyclopropylpyridine]	0.0005 to 0.05 (≈ 0.000207 to 0.0207 µg/mL)

SMILES	MIC50 [µM]
CCOc1nn(-c2ncc(CC)cn2)c(C)c1Oc1cc(Cl)ccc1Cl [example 64, 2-(4-(2,5-dichlorophenoxy)-3-ethoxy-5-methyl-1H-pyrazol-1-yl)-5-ethylpyrimidine]	0.0005 to 0.05 (≈ 0.000197 to 0.0197 µg/mL)
Cc1c(Cc2ccccc2)c(O)nn1-c1ncc(C2CC2)cn1 [example 136, 4-benzyl-1-(5-cyclopropylpyrimidin-2-yl)-5-methyl-1H-pyrazol-3-ol]	0.5 to 5 (≈ 0.153 to 1.53 µg/mL)
CC(C)Oc1nn(-c2ncc(C3CC3)cc2C#N)cc1Oc1ccccc1 [example 75, 5-cyclopropyl-2-(3-isopropoxy-4-phenoxy-1H-pyrazol-1-yl)nicotinonitrile]	> 5
COc1ccc(-n2nc(OC(C)C)c(Oc3c(F)cccc3F)c2C)cn1 [example 130, 5-(4-(2,6-difluorophenoxy)-3-isopropoxy-5-methyl-1H-pyrazol-1-yl)-2-methoxypyridine]	0.5 to 5 (≈ 0.188 to 1.88 µg/mL)
Cc1ccc(-n2nc(OC(C)C)c(Oc3c(F)cccc3F)c2C)nn1 [example 12, 3-(4-(2,6-difluorophenoxy)-3-isopropoxy-5-methyl-1H-pyrazol-1-yl)-6-methylpyridazine]	0.0005 to 0.05 (≈ 0.00018 to 0.018 µg/mL)
c1ccc(Oc2cn(-c3ccc(C4CC4)cn3)nc2C2CC2)cc1 [example 120, 5-cyclopropyl-2-(3-cyclopropyl-4-phenoxy-1H-pyrazol-1-yl)pyridine]	0.05 to 0.5 (≈ 0.0159 to 0.159 µg/mL)
CCOc1nn(-c2cc(C)ccn2)c(C)c1Cc1ccccc1 [example 32, 2-(4-benzyl-3-ethoxy-5-methyl-1H-pyrazol-1-yl)-4-methylpyridine]	0.5 to 5 (≈ 0.154 to 1.54 µg/mL)
CC(C)Oc1nn(-c2ccc(C3CC3)cn2)cc1Sc1ccccc1 [example 105, 5-cyclopropyl-2-(3-isopropoxy-4-(phenylthio)-1H-pyrazol-1-yl)pyridine]	0.05 to 0.5 (≈ 0.0176 to 0.176 µg/mL)
Cc1c(Oc2c(F)cccc2F)c(OC(C)C)nn1-c1ccc(Cl)nn1 [example 15, 3-chloro-6-(4-(2,6-difluorophenoxy)-3-isopropoxy-5-methyl-1H-pyrazol-1-yl)pyridazine]	0.05 to 0.5 (≈ 0.019 to 0.19 µg/mL)
CCOc1nn(-c2ncccn2)c(C)c1Cc1ccccc1 [example 123, 2-(4-benzyl-3-ethoxy-5-methyl-1H-pyrazol-1-yl)pyrimidine]	0.5 to 5 (≈ 0.147 to 1.47 µg/mL)
CCOc1nn(-c2ncc(CC)cn2)c(C)c1Oc1ccccc1C(F)(F)F [example 82, 2-(3-ethoxy-5-methyl-4-(2-(trifluoromethyl)phenoxy)-1H-pyrazol-1-yl)-5-ethylpyrimidine]	0.5 to 5 (≈ 0.196 to 1.96 µg/mL)
CCc1cnc(-n2nc(OC(C)C)c(Cc3cccc(OC)c3)c2C)nc1 [example 102, 5-ethyl-2-(3-isopropoxy-4-(3-methoxybenzyl)-5-methyl-1H-pyrazol-1-yl)pyrimidine]	0.0005 to 0.05 (≈ 0.000183 to 0.0183 µg/mL)
Cc1nn(-c2ccc(Br)cn2)c(OC(C)C)c1Oc1c(F)cccc1F [example 60, 5-bromo-2-(4-(2,6-difluorophenoxy)-5-isopropoxy-3-methyl-1H-pyrazol-1-yl)pyridine]	> 5
Cc1c(Oc2c(F)cccc2F)c(OC(C)C)nn1-c1ncc(C2CC2)cc1N(C)C [example 190, 5-cyclopropyl-2-(4-(2,6-difluorophenoxy)-3-isopropoxy-5-methyl-1H-pyrazol-1-yl)-N,N-dimethylpyridin-3-amine]	0.0005 to 0.05 (≈ 0.000214 to 0.0214 µg/mL)
CCOc1nn(-c2ccc(C3CC3)cn2)c(C)c1Oc1ccccc1C(F)(F)F [example 56, 5-cyclopropyl-2-(3-ethoxy-5-methyl-4-(2-(trifluoromethyl)phenoxy)-1H-pyrazol-1-yl)pyridine]	0.05 to 0.5 (≈ 0.0202 to 0.202 µg/mL)
CCOc1nn(-c2ccc(C3CC3)cn2)c(C)c1Oc1ccccc1 [example 92, 5-cyclopropyl-2-(3-ethoxy-5-methyl-4-phenoxy-1H-pyrazol-1-yl)pyridine]	0.05 to 0.5 (≈ 0.0168 to 0.168 µg/mL)
CCOc1nn(-c2ccc(C(C)(F)F)cn2)c(C)c1Cc1ccccc1 [example 99, 2-(4-benzyl-3-ethoxy-5-methyl-1H-pyrazol-1-yl)-5-(1,1-difluoroethyl)pyridine]	0.5 to 5 (≈ 0.179 to 1.79 µg/mL)
COc1cccc(Cc2cc(OC)nn2-c2ccccn2)c1 [example 148, 2-(3-methoxy-5-(3-methoxybenzyl)-1H-pyrazol-1-yl)pyridine]	> 5
CCc1cnc(-n2nc(OCCO)c(Cc3ccccc3)c2C)nc1 [example 193, 2-(4-benzyl-1-(5-ethylpyrimidin-2-yl)-5-methyl-1H-pyrazol-3-yloxy)ethanol]	0.05 to 0.5 (≈ 0.0169 to 0.169 µg/mL)
CCOc1nn(-c2ccc(C)nc2)c(C)c1Cc1ccccc1 [example 124, 5-(4-benzyl-3-ethoxy-5-methyl-1H-pyrazol-1-yl)-2-methylpyridine]	0.5 to 5 (≈ 0.154 to 1.54 µg/mL)
Cc1c(Oc2c(F)cccc2F)c(OC(C)C)nn1-c1ncc(F)cn1 [example 14, 2-(4-(2,6-difluorophenoxy)-3-isopropoxy-5-methyl-1H-pyrazol-1-yl)-5-fluoropyrimidine]	0.05 to 0.5 (≈ 0.0182 to 0.182 µg/mL)
Cc1c(Oc2ccccc2F)c(OC(C)C)nn1-c1ncc(C2CC2)cc1F [example 53, 5-cyclopropyl-3-fluoro-2-(4-(2-fluorophenoxy)-3-isopropoxy-5-methyl-1H-pyrazol-1-yl)pyridine]	0.05 to 0.5 (≈ 0.0193 to 0.193 µg/mL)
COc1cc(C2CC2)cnc1-n1cc(Oc2ccccc2)c(OC(C)C)n1 [example 184, 5-cyclopropyl-2-(3-isopropoxy-4-phenoxy-1H-pyrazol-1-yl)-3-methoxypyridine]	0.0005 to 0.05 (≈ 0.000183 to 0.0183 µg/mL)
